Each structure is given as a SMILES string. Some results are limits rather than exact numbers.

In the assay the target is Cruzipain (Trypanosoma cruzi, UniProt P25779). The assay is described as follows: Inhibition of Trypanosoma cruzi recombinant cruzain.
Cruzipain, sequence (P25779 whole entry): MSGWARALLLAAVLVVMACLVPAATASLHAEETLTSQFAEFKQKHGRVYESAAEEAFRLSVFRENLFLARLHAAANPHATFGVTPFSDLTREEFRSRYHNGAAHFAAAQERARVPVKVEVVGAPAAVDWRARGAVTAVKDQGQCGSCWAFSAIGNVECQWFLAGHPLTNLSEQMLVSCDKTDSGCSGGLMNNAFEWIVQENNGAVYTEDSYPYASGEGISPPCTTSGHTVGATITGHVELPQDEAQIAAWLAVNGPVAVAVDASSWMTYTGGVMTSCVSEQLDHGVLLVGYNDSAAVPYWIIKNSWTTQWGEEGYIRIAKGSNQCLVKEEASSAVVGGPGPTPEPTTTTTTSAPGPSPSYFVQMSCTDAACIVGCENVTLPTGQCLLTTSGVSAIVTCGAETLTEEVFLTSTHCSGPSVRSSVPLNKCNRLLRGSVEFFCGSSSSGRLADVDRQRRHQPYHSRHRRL
The term IC50 denotes the concentration that inhibits the measured activity by half. Take `NC(=S)N/N=C1/CCC(c2ccc(Br)cc2)C1` (configuration not stated): the 50% inhibitory concentration (IC50) is above 5 µM.
As for `NC(=S)N/N=C1\CCc2ccccc21`, the IC50 is above 17 µM.
As for `CC/C(=N\NC(N)=S)c1cccc(N)c1`, the figure is above 3.64 µM; as for `C/C(=N/NC(N)=S)C1=CCCc2ccccc21`, above 20 µM.
As for `C=CC(=O)C1=CCCc2ccc(Br)cc21`, the figure is 0.8 µM; as for `NC(=S)N/N=C1\CCOc2ccc(Br)cc21`, 0.11 µM.
For `CC/C(=N\NC(N)=S)c1cccc(O)c1`, the half-maximal inhibitory concentration (IC50) is above 33 µM.
As for `CC(=O)C1=CCCc2ccccc21`, the figure is 1.36 µM.
Then `NC(=S)N/N=C1\CCc2ccccc2O1`, with above 16 µM.
As for `NC(=S)N/N=C1\CCS(=O)(=O)c2ccccc21`, the figure is above 20 µM.
Turning to `NC(=S)N/N=C1/CCCC(c2ccc(Br)cc2)C1` (configuration not stated), the IC50 is above 7 µM.
Then `NC(=S)N/N=C1\CCOc2ccccc21`, with above 17 µM.

The record behind these values is ChEMBL document CHEMBL1145324, “Design, synthesis, and biochemical evaluation of novel cruzain inhibitors with potential application in the treatment of Chagas' disease” (Bioorg Med Chem Lett, 2006).
